Pest or weed control data for 7 compounds are collected here from patent US20230017045A1, “PYRIDINE AND PYRIMIDINE CARBOXYLATE HERBICIDES AND METHODS OF USE THEREOF” (Dow AgroSciences LLC, priority 2017, published 2023).

The assay deals with test plant species. Briefly: Post-emergent herbicidal activity test (greenhouse, foliar spray, visual growth reduction). The class given is in vivo. Particulars: post-emergence, 336 h, 140 g ai/ha. As for the experimental part: Post-emergent Test: Seeds or nutlets of the desired test plant species were planted in Sun Gro Metro-Mix® 360 planting mixture, which typically has a pH of 6.0 to 6.8 and an organic matter content of about 30 percent, in plastic pots with a surface area of 64 square centimeters. In some aspects, to ensure good germination and healthy plants, a fungicide treatment and/or other chemical or physical treatment was applied. The plants were grown for 7-21 d in a greenhouse with an approximate 15 h photoperiod which was maintained at 23-29° C. during the day and 22-28° C. during the night. Nutrients and water were added on a regular basis and supplemental lighting was provided with overhead metal halide 1000-Watt lamps as necessary. Plants were used for testing when they reached the first or second true leaf stage. A weighed amount, determined by the highest rate to be tested, of each test compound was placed in a 25 mL glass vial and was dissolved in 4 mL of a 97:3 v/v mixture of acetone and DMSO to obtain concentrated stock solutions. […] The concentrated stock solutions obtained were diluted with 20 mL of an aqueous mixture containing acetone, water, isopropyl alcohol, DMSO, […] crop oil concentrate, and X-77 surfactant in a 48.5:39:10:1.5:1.0:0.02 v/v ratio to obtain spray solutions containing the application rate. Compound requirements are based upon a 12 mL application volume at a rate of 187 liters per hectare (L/ha). Formulated compounds were applied to the plant material with an overhead Mandel track sprayer equipped with […] nozzles calibrated to deliver 187 L/ha over an application area of 0.64 square meters at a spray height of 18 inches (43 cm) above the average plant canopy height. Control plants were sprayed in the same manner with the solvent blank. The treated plants and control plants were placed in a greenhouse as described above and watered by subirrigation to prevent wash-off of the test compounds. After 14 d, the condition of the test plants as compared with that of the nontreated and control plants was determined visually and scored on a scale of 0 to 100 percent where 0 corresponds to no injury and 100 corresponds to complete control. In the reporting of the results, Table A: Percent Growth Reduction Conversion Table was used.

[1] abbreviates: ALOMY: blackgrass (Alopecurus myosuroides), 14 days after application, read-out: Visual Growth Reduction (%) 14 Days After Application, ALOMY.
Setting [2] is: AMARE: redroot pigweed (Amaranthus retroflexus), 14 days after application, read-out: Visual Growth Reduction (%) 14 Days After Application, AMARE.
Where [3] appears, read: AVEFA: wild oat (Avena fatua), 14 days after application, read-out: Visual Growth Reduction (%) 14 Days After Application, AVEFA.
The mark [4] stands for this setting: CHEAL: lambsquarters (Chenopodium album), 14 days after application, read-out: Visual Growth Reduction (%) 14 Days After Application, CHEAL.
Setting [5] is: CIRAR: canada thistle (Cirsium arvense), 14 days after application, read-out: Visual Growth Reduction (%) 14 Days After Application, CIRAR.
[6] abbreviates: CYPES: yellow nutsedge (Cyperus esculentus), 14 days after application, read-out: Visual Growth Reduction (%) 14 Days After Application, CYPES.
Setting [7] is: DIGSA: crabgrass (Digitaria sanguinalis), 14 days after application, read-out: Visual Growth Reduction (%) 14 Days After Application, DIGSA.
[8] abbreviates: barnyardgrass (Echinochloa crus-galli), 14 Days After Application, read-out: Visual Growth Reduction (%) ECHCG.
The mark [9] stands for this setting: common chickweed (Stellaria media), 14 Days After Application, read-out: Visual Growth Reduction (%) STEME.
The mark [10] stands for this setting: giant foxtail (Setaria faberi), 14 Days After Application, read-out: Visual Growth Reduction (%) SETFA.
[11] abbreviates: ivy-leaf morning glory (Ipomoea hederacea), 14 Days After Application, read-out: Visual Growth Reduction (%) IPOHE.
[12] abbreviates: johnsongrass (Sorghum vulgare), 14 Days After Application, read-out: Visual Growth Reduction (%) SORVU.
Setting [13] is: kochia (Bassia scoparia), 14 Days After Application, read-out: Visual Growth Reduction (%) KCHSC.
The mark [14] stands for this setting: rice (Oryza sativa), 14 Days After Application, read-out: Visual Growth Reduction (%) ORYSA.
Setting [15] is: wheat, spring (Triticum aestivum), 14 Days After Application, read-out: Visual Growth Reduction (%) TRZAS.

The structures appear in SMILES notation. Read-outs that look alike come from different tables or passages of the source.

As for `COC(=O)c1nc(-c2ccc(C(F)(F)F)nc2Cl)ccc1Cl` [F8, Methyl 2′,5-dichloro-6′-(trifluoromethyl)-[2,3′-bipyridine]-6-carboxylate], the pest or weed control at 140 g/ha reads like this: under setting [1], 0 to 29%; under setting [2], 95 to 100%; under setting [3], 0 to 29%; under setting [4], 95 to 100%; under setting [5], 85 to 94%; under setting [6], 45 to 59%. Further, the pest or weed control at 140 g/ha reads like this: under setting [7], 60 to 74%; under setting [8], 30 to 44%; under setting [9], 0 to 29%; under setting [10], 0 to 29%; under setting [11], 95 to 100%; under setting [12], 85 to 94%. Moreover, the pest or weed control at 140 g/ha under setting [13] was 85 to 94%, the pest or weed control at 140 g/ha under setting [14] is 0 to 29% and the pest or weed control at 140 g/ha under setting [15] fell in the range of 30 to 44%.
On to `COC(=O)c1nc(-c2ccc(C(F)(F)F)cc2Cl)ccc1C(F)(F)F` [F9, Methyl 6-(2-chloro-4-(trifluoromethyl)phenyl)-3-(trifluoromethyl) picolinate], for which the pest or weed control at 140 g/ha runs as follows: under setting [1], 0 to 29%; under setting [2], 30 to 44%; under setting [3], 0 to 29%; under setting [4], 0 to 29%; under setting [5], 0 to 29%; under setting [6], 0 to 29%. Besides, the pest or weed control at 140 g/ha under setting [7] lay in the range of 0 to 29%; the pest or weed control at 140 g/ha under setting [8] lay within 0 to 29%; the pest or weed control at 140 g/ha under setting [9] was 0 to 29%; the pest or weed control at 140 g/ha under setting [10] is 0 to 29%; the pest or weed control at 140 g/ha under setting [11] was 45 to 59%; the pest or weed control at 140 g/ha under setting [12] is 0 to 29%. Further, the pest or weed control at 140 g/ha under setting [13] is 0 to 29%, the pest or weed control at 140 g/ha under setting [14] is 0 to 29% and the pest or weed control at 140 g/ha under setting [15] was 0 to 29%.
As for `COC(=O)c1nc(-c2ccc(C(F)(F)F)cc2Cl)ccc1C#N` [F10, Methyl 6-(2-chloro-4-(trifluoromethyl)phenyl)-3-cyanopicolinate], the pest or weed control at 140 g/ha reads like this: under setting [1], 0 to 29%; under setting [2], 30 to 44%; under setting [3], 0 to 29%; under setting [4], 45 to 59%; under setting [5], 30 to 44%; under setting [6], 45 to 59%. The pest or weed control at 140 g/ha by setting is: under setting [7], 45 to 59%; under setting [8], 0 to 29%; under setting [9], 0 to 29%; under setting [10], 0 to 29%; under setting [11], 60 to 74%; under setting [12], 30 to 44%. In addition, the pest or weed control at 140 g/ha reads like this: under setting [13], 0 to 29%; under setting [14], 0 to 29%; under setting [15], 0 to 29%.
Take `COC(=O)c1nc(-c2ccc(C(F)(F)F)cc2Cl)cc(C#N)c1Cl` [F11, Methyl 3-chloro-6-(2-chloro-4-(trifluoromethyl)phenyl)-4-cyanopicolinate]: the pest or weed control at 140 g/ha was 0 to 29% under setting [1]; 0 to 29% under setting [2]; 0 to 29% under setting [3]; 0 to 29% under setting [4]; 30 to 44% under setting [5]; 0 to 29% under setting [6]. Besides, the pest or weed control at 140 g/ha runs as follows: under setting [7], 0 to 29%; under setting [8], 0 to 29%; under setting [10], 0 to 29%; under setting [11], 30 to 44%; under setting [12], 0 to 29%; under setting [13], 0 to 29%. Moreover, the pest or weed control at 140 g/ha is, setting by setting: under setting [14], 0 to 29%; under setting [15], 0 to 29%.
Regarding `COC(=O)c1nc(-c2ccc(C(F)(F)F)cc2F)ccc1Cl` [F12, Methyl 3-chloro-6-(2-fluoro-4-(trifluoromethyl)phenyl)picolinate], the pest or weed control at 140 g/ha is, setting by setting: under setting [1], 0 to 29%; under setting [2], 85 to 94%; under setting [3], 0 to 29%; under setting [4], 95 to 100%; under setting [5], 60 to 74%; under setting [6], 60 to 74%. In addition, the pest or weed control at 140 g/ha lay within 75 to 84% under setting [7]; 0 to 29% under setting [8]; 0 to 29% under setting [9]; 0 to 29% under setting [10]; 95 to 100% under setting [11]; 75 to 84% under setting [12]. The pest or weed control at 140 g/ha lay within 0 to 29% under setting [13], 0 to 29% under setting [14] and 0 to 29% under setting [15].
In the case of `COC(=O)c1nc(-c2ccc(C3CC3(F)F)cc2Cl)ccc1Cl` (centres unmarked) [F13, methyl 3-chloro-6-(2-chloro-4-(2,2 difluorocyclopropyl)phenyl) picolinate], the pest or weed control at 140 g/ha by setting is: under setting [1], 0 to 29%; under setting [2], 75 to 84%; under setting [3], 0 to 29%; under setting [4], 85 to 94%; under setting [5], 85 to 94%; under setting [6], 0 to 29%. Also, the pest or weed control at 140 g/ha by setting is: under setting [7], 0 to 29%; under setting [8], 0 to 29%; under setting [9], 0 to 29%; under setting [10], 0 to 29%; under setting [11], 95 to 100%; under setting [12], 60 to 74%. The pest or weed control at 140 g/ha is 60 to 74% under setting [13], 0 to 29% under setting [14] and 0 to 29% under setting [15].
`COC(=O)c1nc(-c2ccc(C(C)F)cc2Cl)ccc1Cl` (centres unmarked) [F14, methyl 3-chloro-6-(2-chloro-4-(1-fluoroethyl)phenyl)-picolinate]: the pest or weed control at 140 g/ha lay in the range of 0 to 29% under setting [1]; 0 to 29% under setting [2]; 0 to 29% under setting [3]; 85 to 94% under setting [4]; 0 to 29% under setting [5]; 0 to 29% under setting [6]. For the same compound, the pest or weed control at 140 g/ha was in the range of 0 to 29% under setting [7]; 0 to 29% under setting [8]; 0 to 29% under setting [9]; 0 to 29% under setting [10]; 45 to 59% under setting [11]; 0 to 29% under setting [12]. Also, the pest or weed control at 140 g/ha under setting [13] lay in the range of 85 to 94%, the pest or weed control at 140 g/ha under setting [14] lay in the range of 0 to 29% and the pest or weed control at 140 g/ha under setting [15] is 0 to 29%.
